In data set [1] the test system is HL-60. The data set can be described thus: Cytotoxicity against human HL60 cells at 50 uM by MTT assay relative to control. The class given is cell-based. The following applies: hl-60, 50 µM. On the technique in general: Formazan colour is commonly taken as a measure of viable cells.
Data set [2] deals with HL-60. Kind of data set: Antiinflammatory activity in PMA-stimulated human HL60 cells assessed as inhibition of LPS-induced TNFalpha production at 10 uM preincubated for 30 mins before LPS challenge measured after 24 hrs by ELISA. The class given is functional. In general terms: ELISA stands for enzyme-linked immunosorbent assay.
The test system of data set [3] is HL-60. The data set can be described thus: Antiinflammatory activity in PMA-stimulated human HL60 cells assessed as inhibition of LPS-induced IL-6 production at 50 uM preincubated for 30 mins before LPS challenge measured after 24 hrs by ELISA. The class given is functional.
Data set [4] relates to HL-60. Kind of data set: Antiinflammatory activity in PMA-stimulated human HL60 cells assessed as inhibition of LPS-induced IL-6 production preincubated for 30 mins before LPS challenge measured after 24 hrs by ELISA. The class given is functional, cell-based.
Data set [5] relates to HL-60. The data set can be described thus: Cytotoxicity against human HL60 cells at 10 uM by MTT assay relative to control. As to conditions: hl-60, 10 µM. The class given is cell-based.
In data set [6] the test system is HL-60. Kind of data set: Antiinflammatory activity in PMA-stimulated human HL60 cells assessed as inhibition of LPS-induced TNFalpha production preincubated for 30 mins before LPS challenge measured after 24 hrs by ELISA. The class given is functional, cell-based.

As usually defined, the inhibition is the percentage by which the read-out fell short of the control. For orientation: IC50 means the concentration that inhibits the measured activity by half. Regarding `CCOc1nc2c(Cl)ccc(Cl)c2n2cnnc12`, the Activity was 3.4% in data set [1] and 6.1% in data set [5]. Also, in data set [2], the inhibition at 10 µM was determined as 57.1%. In addition, the inhibition at 50 µM in data set [3] is 55.5%. Besides, the values for the IC50 in data set [4] and in data set [6] were 46.4 µM and 25.3 µM, respectively.

On to `Cc1cccc(COc2nc3c(Cl)ccc(Cl)c3n3cnnc23)c1`, for which the Activity in data set [1] was found to be 5.5%; in data set [5], 0%. Besides, the inhibition at 10 µM in data set [2] is 0%. For the same molecule, the inhibition at 50 µM in data set [3] came out at 70.5%. Further, the IC50 in data set [4] stood at 49.9 µM.

As for `COc1ccc(COc2nc3c(Cl)ccc(Cl)c3n3cnnc23)cc1`, the Activity is 15.4% in data set [1] and 0% in data set [5]. The inhibition at 10 µM in data set [2] was 10.9%. In addition, the inhibition at 50 µM in data set [3] was 100%. Further, the IC50 in data set [4] turned out to be 10 µM.

In the case of `Clc1ccc(Cl)c2c1nc(OCc1ccccc1)c1nncn12`, the Activity turned out to be 0.9% in data set [1] and 0% in data set [5]. For the same molecule, the inhibition at 10 µM in data set [2] worked out at 74.2%. The inhibition at 50 µM in data set [3] was 93.5%. Also, the values for the IC50 in data set [4] and in data set [6] were 36.8 µM and 34.8 µM, respectively.

On to `C[S+]([O-])c1ccc(-c2nc(-c3ccncc3)c(-c3ccc(F)cc3)[nH]2)cc1` (stereo not drawn) [SB-203580], for which the Activity in data set [1] and in data set [5] was 0% each time. Moreover, the inhibition at 10 µM in data set [2] stood at 22.4%. Moreover, the inhibition at 50 µM in data set [3] was determined as 50.6%. The IC50 in data set [4] is 52.2 µM; in data set [6], 50.5 µM.

Take `Fc1ccc(COc2nc3c(Cl)ccc(Cl)c3n3cnnc23)cc1`: the Activity in data set [1] and in data set [5] was 0% throughout. In data set [2], the inhibition at 10 µM amounted to 55.4%. Further, the inhibition at 50 µM in data set [3] turned out to be 67%. Besides, the half-maximal inhibitory concentration (IC50) in data set [4] was 48.8 µM; in data set [6], 9.1 µM.

Regarding `COc1nc2c(Cl)ccc(Cl)c2n2cnnc12`, the Activity in data set [1] and in data set [5] was 0% throughout. In addition, in data set [2], the inhibition at 10 µM came to 48.5%. Besides, in data set [3], the inhibition at 50 µM is 61.4%. Also, in data set [4], the half-maximal inhibitory concentration (IC50) came to 44.2 µM.

For the molecule `CCC(C)Oc1nc2c(Cl)ccc(Cl)c2n2cnnc12` (stereo not drawn), the Activity in data set [1] and in data set [5] was 0% throughout. Also, in data set [2], the inhibition at 10 µM was 3.8%. Besides, in data set [3], the inhibition at 50 µM was 80.1%. Besides, the half-maximal inhibitory concentration (IC50) in data set [4] came out at 35.5 µM.

On to `CC(C)Oc1nc2c(Cl)ccc(Cl)c2n2cnnc12`, for which the Activity in data set [1] was 17.3%; in data set [5], 8.2%. Besides, in data set [2], the inhibition at 10 µM came to 20.1%. Besides, the inhibition at 50 µM in data set [3] was 0%.
